Assay results from PMC9270327 (Communications Biology, 2022).
pIC50: −log10 of the molar value. Where two headings read alike, the source gives them in different places.

Key:
TMPRSS2 = TMPRSS2 (Homo sapiens, UniProt O15393)
Procedure: Negative ctrl: no inhibitor, positive ctrl: inhibitor in assay buffer. d Inhibitory constants Ki as determined from (a–c). Shown are the means ± SD of n = 1 experiment performed in triplicates. No inh. no inhibition.
The activity of the compounds against the recombinant human enzymes was determined in enzyme inhibition assays. […] The measurements were performed on a Tecan infinite® M1000 and the fluorescence intensity was measured by exciting the AMC fluorophore at 380 nm wavelength and recording emission at 460 nm wavelength. […] Fluorescence intensities and absorption were measured every 2 min for 2 h or as endpoint after 2 h. […] To determine the IC50 values, the concentration-response data were plotted with the program GraphPad prism version 8.4.2 (San Diego, California) and a nonlinear regression fit with the equation [Inhibitor] vs. normalized response was applied. The inhibitory constant Ki was calculated from the IC50 values using the Cheng–Prusoff equation (Ki = IC50/[S]/KM) for competitive reversible inhibitors[66].
The stability of the inhibitors was measured according to a modified procedure from ref. [67]. […] At indicated timepoints, 100 µL samples were taken and mixed with 200 µL of ethanol to precipitate proteins. […] The supernatant was aspirated and analyzed using analytical HPLC. The residual inhibitory constants Ki after incubation was assessed by mixing serial dilutions of the inhibitor with recombinant TMPRSS2 as described above.

[1] = target: cellular TMPRSS2 activity, Caco-2 cells (Homo sapiens, UniProt O15393); conditions: for cellular protease activity on Caco-2 cells, Mean (Fig. 4a): normalized, 0 nM = 100
Procedure: In total, 10,000 Caco-2 cells (ATCC) in 100 µL EMEM medium supplemented with 10% FBS, 100 U/mL penicillin, […] streptomycin, and 2 mM glutamine (all Invitrogen, Germany) were seeded per well in a 96-well plate and incubated at 37 °C for 4 days until full confluency of the cells. The cells were washed two times with PBS and EMEM medium without FBS was added. […] The fluorescence intensity was measured as described above. In all, 20,000 HEK293T cells (ATCC) were seeded in 100 µL DMEM supplemented with 10% FBS, 100 U/mL penicillin, […] streptomycin, and 2 mM glutamine. […] After 14 h, transfection mix was removed from the cells and 80 µL fresh medium without FBS and 10 µL inhibitors were added (final concentration 50 µM). […] Fluorescence intensity was measured after 2 h at 37 °C as described above.

TMPRSS2, sequence (O15393 whole entry): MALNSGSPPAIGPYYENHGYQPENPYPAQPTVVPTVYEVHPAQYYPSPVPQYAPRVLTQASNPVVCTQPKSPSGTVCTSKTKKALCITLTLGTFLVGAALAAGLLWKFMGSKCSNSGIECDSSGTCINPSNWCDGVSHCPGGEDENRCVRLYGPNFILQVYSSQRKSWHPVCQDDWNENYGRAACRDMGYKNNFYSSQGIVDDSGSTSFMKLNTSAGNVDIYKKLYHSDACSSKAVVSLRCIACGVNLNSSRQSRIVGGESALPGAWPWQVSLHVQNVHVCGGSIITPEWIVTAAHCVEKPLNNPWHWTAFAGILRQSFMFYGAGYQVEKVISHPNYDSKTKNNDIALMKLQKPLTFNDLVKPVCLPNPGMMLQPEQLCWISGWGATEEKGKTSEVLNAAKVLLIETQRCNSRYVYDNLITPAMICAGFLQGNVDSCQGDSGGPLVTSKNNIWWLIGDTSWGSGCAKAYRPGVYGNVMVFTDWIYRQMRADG
cellular TMPRSS2 activity, Caco-2 cells, sequence (O15393 whole entry): as above

Substance: ace-Arg-Pro-Arg-kbt [Compound 2]
- increase in Ki values against TMPRSS2 (TMPRSS2; incubation in human serum during the course of 10 days): 1.4–1.8 fold
- TMPRSS2 activity, Mean (0 nM = 100) (TMPRSS2; inhibitor 0.0167 nM, 0 min in serum): 106.1220
- TMPRSS2 activity, Mean (0 nM = 100) (TMPRSS2; inhibitor 0.0167 nM, 30 min in serum): 99.5878
- TMPRSS2 activity, Mean (0 nM = 100) (TMPRSS2; inhibitor 0.0167 nM, 60 min in serum): 97.9753
- TMPRSS2 activity, Mean (0 nM = 100) (TMPRSS2; inhibitor 0.0167 nM, 120 min in serum): 103.1067
- TMPRSS2 activity, Mean (0 nM = 100) (TMPRSS2; inhibitor 0.0167 nM, 24 h in serum): 102.6336
- TMPRSS2 activity, Mean (0 nM = 100) (TMPRSS2; inhibitor 0.0167 nM, 10 d in serum): 99.7199
- TMPRSS2 activity, Mean (0 nM = 100) (TMPRSS2; inhibitor 0.0167 nM, positive ctrl): 99.3394
- TMPRSS2 activity, Mean (0 nM = 100) (TMPRSS2; inhibitor 0.167 nM, 0 min in serum): 105.3800
- TMPRSS2 activity, Mean (0 nM = 100) (TMPRSS2; inhibitor 0.167 nM, 30 min in serum): 98.0548
- TMPRSS2 activity, Mean (0 nM = 100) (TMPRSS2; inhibitor 0.167 nM, 60 min in serum): 98.4409
- TMPRSS2 activity, Mean (0 nM = 100) (TMPRSS2; inhibitor 0.167 nM, 120 min in serum): 101.9976
- TMPRSS2 activity, Mean (0 nM = 100) (TMPRSS2; inhibitor 0.167 nM, 24 h in serum): 99.8791
- TMPRSS2 activity, Mean (0 nM = 100) (TMPRSS2; inhibitor 0.167 nM, 10 d in serum): 99.7654
- TMPRSS2 activity, Mean (0 nM = 100) (TMPRSS2; inhibitor 0.167 nM, positive ctrl): 97.2281
- TMPRSS2 activity, Mean (0 nM = 100) (TMPRSS2; inhibitor 1.665 nM, 0 min in serum): 108.2341
- TMPRSS2 activity, Mean (0 nM = 100) (TMPRSS2; inhibitor 1.665 nM, 30 min in serum): 98.1707
- TMPRSS2 activity, Mean (0 nM = 100) (TMPRSS2; inhibitor 1.665 nM, 60 min in serum): 94.8463
- TMPRSS2 activity, Mean (0 nM = 100) (TMPRSS2; inhibitor 1.665 nM, 120 min in serum): 98.7901
- TMPRSS2 activity, Mean (0 nM = 100) (TMPRSS2; inhibitor 1.665 nM, 24 h in serum): 99.7583
- TMPRSS2 activity, Mean (0 nM = 100) (TMPRSS2; inhibitor 1.665 nM, 10 d in serum): 103.5823
- TMPRSS2 activity, Mean (0 nM = 100) (TMPRSS2; inhibitor 1.665 nM, positive ctrl): 91.5051
- TMPRSS2 activity, Mean (0 nM = 100) (TMPRSS2; inhibitor 16.65 nM, 0 min in serum): 98.1805
- TMPRSS2 activity, Mean (0 nM = 100) (TMPRSS2; inhibitor 16.65 nM, 30 min in serum): 91.6522
- TMPRSS2 activity, Mean (0 nM = 100) (TMPRSS2; inhibitor 16.65 nM, 60 min in serum): 87.0886
- TMPRSS2 activity, Mean (0 nM = 100) (TMPRSS2; inhibitor 16.65 nM, 120 min in serum): 89.1234
- TMPRSS2 activity, Mean (0 nM = 100) (TMPRSS2; inhibitor 16.65 nM, 24 h in serum): 89.0776
- TMPRSS2 activity, Mean (0 nM = 100) (TMPRSS2; inhibitor 16.65 nM, 10 d in serum): 93.1155
- TMPRSS2 activity, Mean (0 nM = 100) (TMPRSS2; inhibitor 16.65 nM, positive ctrl): 59.7913
- TMPRSS2 activity, Mean (0 nM = 100) (TMPRSS2; inhibitor 166.5 nM, 0 min in serum): 41.7125
- TMPRSS2 activity, Mean (0 nM = 100) (TMPRSS2; inhibitor 166.5 nM, 30 min in serum): 36.7343
- TMPRSS2 activity, Mean (0 nM = 100) (TMPRSS2; inhibitor 166.5 nM, 60 min in serum): 32.5087
- TMPRSS2 activity, Mean (0 nM = 100) (TMPRSS2; inhibitor 166.5 nM, 120 min in serum): 34.3878
- TMPRSS2 activity, Mean (0 nM = 100) (TMPRSS2; inhibitor 166.5 nM, 24 h in serum): 36.8130
- TMPRSS2 activity, Mean (0 nM = 100) (TMPRSS2; inhibitor 166.5 nM, 10 d in serum): 52.5195
- TMPRSS2 activity, Mean (0 nM = 100) (TMPRSS2; inhibitor 166.5 nM, positive ctrl): 21.7311
- TMPRSS2 activity, Mean (0 nM = 100) (TMPRSS2; inhibitor 1665 nM, 0 min in serum): 8.0842
- TMPRSS2 activity, Mean (0 nM = 100) (TMPRSS2; inhibitor 1665 nM, 30 min in serum): 8.9275
- TMPRSS2 activity, Mean (0 nM = 100) (TMPRSS2; inhibitor 1665 nM, 60 min in serum): 5.1862
- TMPRSS2 activity, Mean (0 nM = 100) (TMPRSS2; inhibitor 1665 nM, 120 min in serum): 6.5663
- TMPRSS2 activity, Mean (0 nM = 100) (TMPRSS2; inhibitor 1665 nM, 24 h in serum): 7.0802
- TMPRSS2 activity, Mean (0 nM = 100) (TMPRSS2; inhibitor 1665 nM, 10 d in serum): 12.0706
- TMPRSS2 activity, Mean (0 nM = 100) (TMPRSS2; inhibitor 1665 nM, positive ctrl): 5.8217
- cellular protease activity on Caco-2 cells, Mean (Fig. 4a) ([1]; 0.1 nM): 109.802
- cellular protease activity on Caco-2 cells, Mean (Fig. 4a) ([1]; 1 nM): 82.1942
- cellular protease activity on Caco-2 cells, Mean (Fig. 4a) ([1]; 10 nM): 70.6835
- cellular protease activity on Caco-2 cells, Mean (Fig. 4a) ([1]; 100 nM): 32.9137
- cellular protease activity on Caco-2 cells, Mean (Fig. 4a) ([1]; 1000 nM): -3.058
- cellular protease activity on Caco-2 cells, Mean (Fig. 4a) ([1]; 10000 nM): 1.349
- cellular protease activity on Caco-2 cells, Mean (Fig. 4a) ([1]; 100000 nM): 2.158
- pIC50 ([1]; read-out: IC50 Caco2, cell-mediated proteolysis of Boc-Gln-Ala-Arg-AMC, 30 min preincubation): 7.49
